Where a name gives a salt, the structure may show the parent alone. Read-outs that look alike come from different tables or passages of the source.

Data on three compounds can be found in US6384043B1, “Methods of alleviating pain sensations of the denuded eye with opioid analgesics” (priority 1993, dated 2002).

Series [1] concerns corneal epithelial cell regeneration in pigmented rabbits. Put plainly: Toxicity test: corneal re-epithelialization (wound healing) after mechanical removal of epithelial cells. Conditions: for Animals with complete healing of the cornea / total animals per group: 2 drops at 4 hourly intervals for 6 days. How it is done:
Healthy pigmented rabbits weighing about 1.5-2.2 kg were anesthetized and then corneal epithelial cells were scraped and removed using a blade under direct view of a microscope. The basal lamina was left intact while thorough de-epithelialization was performed and confirmed by staining the surface of the cornea with 1% fluorescein. […] Eyes in each group were instilled with two drops of the corresponding solution at 4 hourly intervals for 6 consecutive days. Wound healing (corneal re-epithelialization) was assessed on days 2, 3, 4, 5, 6, 7, and 8 following corneal abrasion using fluorescein staining with Fluor-I-Strip, and epithelial regeneration and migration were monitored by clinical examinations as well as wound surface area measurements.

Series [2] concerns corneal sensitivity of patients with corneal abrasion or after a refractive procedure. The conditions noted are these: 2 drops topical, morphine 0.5 mg/ml, mean ± SEM.
Protocol: The following describes analgesic tests which were performed on patients following topical application of the prepared and previously described topical ophthalmic analgesic formulation. […] Five patients were selected to participate in this study. In all cases, three measurements were made in the following fashion: First, a baseline response (corneal sensitivity) was established by determining the response of the patient eye to a standard pain pressure using a Cochet Bonnet Aesthesiometer instrument and without applying any drug. Measurements were made by beginning with the nylon monofilament (0.12 mm diameter) fully extended. The tip was applied perpendicularly to the corneal surface and gently pressed until the fiber's first visible bending. […] The length was then recorded in units of mm. Second, a saline solution (2 drops) were instilled in the eye and at 10 and 20 minutes later the response of the patient's cornea to pain pressure was determined as described above. These repeated measurements served as a placebo effect for comparison purposes.
Again, an Aesthesiometer, based upon the principle of pressure transmitted axially by a nylon monofilament of known diameter but of variable length for a given bending stress, was applied to the corneal surface. […] The distance, in millimeters (mm) of the nylon monofilament is recorded and then converted to pressure in gram/square millimeter.
The test system of series [3] is pain scores following knee surgery. The conditions noted are these: applied locally inside the joints following knee surgery; cited from earlier work.
For series [4], the system named is pupil of morphine-dependent subject. The conditions noted are these: applied topically to one eye of a morphine-dependent subject; cited from earlier work.

`CCCOc1ccc(C(=O)OCCN(CC)CC)cc1N` [Alcaine, proparacaine HCl]: in series [1] (pigmented, rabbit, in vivo), the “Complete regeneration / wound healing by” value is on record as not above 8 days. Further, in series [1] (rabbit, in vivo), the “Day on which eyes began to show epithelial regeneration” value was “third day”; the “Effect of repeated topical application on corneal epithelial cell regeneration and migration” value was “significantly prevented regeneration”.
Consider `CN1CC[C@]23c4c5ccc(O)c4O[C@H]2[C@@H](O)C=C[C@H]3[C@H]1C5.O=S(=O)(O)O` [Morphine, morphine sulphate], for which the “Animals with complete healing of the cornea / total animals per group” value is 0/6 in series [1] (day 1); 0/6 in series [1] (day 2); 0/6 in series [1] (day 3); 1 in series [1] (day 4); 1/6 in series [1] (day 4, sulphate); 3/6 in series [1] (day 5, sulphate). Also, the “Animals with complete healing of the cornea / total animals per group” value was 4/6 in series [1] (day 6); 5/6 in series [1] (day 7, sulphate); 5/6 in series [1] (day 8). Moreover, the figures for the “Corneal sensitivity expressed as pressure” value in series [2] (10 min after treatment) and in series [2] (20 min after treatment) were 7.69 ± 2.16 grm/sq. mm and 9.84 ± 1.00 grm/sq. mm, respectively. Also, the “Effect on pain scores” value in series [3] is on record as “significantly reduced pain scores”. Moreover, the “Time to maximal effect” value in series [3] is 3 to 6 h.
For `C=CCN1CC[C@]23c4c5ccc(O)c4O[C@H]2C(=O)CC[C@@]3(O)[C@H]1C5` [naloxone], the “Effect on pupil of the same eye” value in series [4] is “pupillary dilation”.
